Measured values published in US20260224588A1, “BENZODIAZEPINONE-DERIVED INHIBITORS OF EGFR AND HER2” (The Research Foundation for the State University of New York, priority 2023, published 2026).

Tests used:
ADCK3 = ADCK3 (Homo sapiens, UniProt Q8NI60); assay: KINOMEscan; type: binding; settings: 1 μM of compound 4; read-out: POC
CHEK1 = CHEK1 (Homo sapiens, UniProt O14757); assay: KINOMEscan; type: binding; settings: 1 μM of compound 4; read-out: POC
CSF1R = CSF1R (Homo sapiens, UniProt P07333); assay: KINOMEscan; type: binding; settings: 1 μM of compound 4; read-out: POC
CSF1R-autoinhibited = CSF1R-autoinhibited (Homo sapiens, UniProt P07333); assay: KINOMEscan; type: binding; settings: 1 μM of compound 4; read-out: POC
EGFR(G719C) = molecular target: T1, EGFR(G719C) (Homo sapiens, UniProt P00533, G719C); assay: KINOMEscan; type: binding; settings: 1 μM of compound 4; read-out: POC
T1 construct: purchased Eurofins DiscoverX (KINOMEscan service)

ERK2 = molecular target: T2, ERK2 (Homo sapiens, UniProt P28482); assay: KINOMEscan; type: binding; settings: 1 μM of compound 4; read-out: POC
T2 construct: purchased Eurofins DiscoverX Corporation

FER = molecular target: T3, FER (Homo sapiens, UniProt P16591); assay: KINOMEscan; type: binding; settings: 1 μM of compound 4; read-out: POC
T3 construct: purchased Eurofins DiscoverX Corporation

FLT3(D835Y) = molecular target: T4, FLT3(D835Y) (Homo sapiens, UniProt P36888, D835Y); assay: KINOMEscan; type: binding; settings: 1 μM of compound 4; read-out: POC
T4 construct: purchased Eurofins DiscoverX Corporation

GAK = molecular target: T5, GAK (Homo sapiens, UniProt O14976); assay: KINOMEscan; type: binding; settings: 1 μM of compound 4; read-out: POC
T5 construct: purchased Eurofins DiscoverX Corporation

HUNK = HUNK (Homo sapiens, UniProt P57058); assay: KINOMEscan; type: binding; settings: 1 μM of compound 4; read-out: POC
KIT(D816H) = KIT(D816H) (Homo sapiens, UniProt P10721, D816H); assay: KINOMEscan; type: binding; settings: 1 μM of compound 4; read-out: POC
KIT(V559D + V654A) = KIT(V559D + V654A) (Homo sapiens, UniProt P10721, V559D/V654A); assay: KINOMEscan; type: binding; settings: 1 μM of compound 4; read-out: POC
KIT-autoinhibited = KIT-autoinhibited (Homo sapiens, UniProt P10721); assay: KINOMEscan; type: binding; settings: 1 μM of compound 4; read-out: POC
LIMK2 = LIMK2 (Homo sapiens, UniProt P53671); assay: KINOMEscan; type: binding; settings: 1 μM of compound 4; read-out: POC
MAP3K3 = MAP3K3 (Homo sapiens, UniProt Q99759); assay: KINOMEscan; type: binding; settings: 1 μM of compound 4; read-out: POC
NEK9 = molecular target: T6, NEK9 (Homo sapiens, UniProt Q8TD19); assay: KINOMEscan; type: binding; settings: 1 μM of compound 4; read-out: POC
T6 construct: purchased Eurofins DiscoverX Corporation (KINOMEscan)

RAF1 = molecular target: T7, RAF1 (Homo sapiens, UniProt P04049); assay: KINOMEscan; type: binding; settings: 1 μM of compound 4; read-out: POC
T7 construct: purchased Eurofins DiscoverX Corporation (KINOMEscan screening service)

RIOK3 = molecular target: T8, RIOK3 (Homo sapiens, UniProt O14730); assay: KINOMEscan; type: binding; settings: 1 μM of compound 4; read-out: POC
T8 construct: purchased Eurofins DiscoverX Corporation (KINOMEscan screening service)

SGK = molecular target: T9, SGK (Homo sapiens, UniProt O00141); assay: KINOMEscan; type: binding; settings: 1 μM of compound 4; read-out: POC
T9 construct: purchased Eurofins DiscoverX (KINOMEscan service)

SgK110 = molecular target: T10, SgK110 (Homo sapiens, UniProt P0C264); assay: KINOMEscan; type: binding; settings: 1 μM of compound 4; read-out: POC
T10 construct: purchased Eurofins DiscoverX (KINOMEscan service)

TGFBR1 = molecular target: T11, TGFBR1 (Homo sapiens, UniProt P36897); assay: KINOMEscan; type: binding; settings: 1 μM of compound 4; read-out: POC
T11 construct: purchased Eurofins DiscoverX Corporation

TXK = molecular target: T12, TXK (Homo sapiens, UniProt P42681); assay: KINOMEscan; type: binding; settings: 1 μM of compound 4; read-out: POC
T12 construct: purchased Eurofins DiscoverX

VPS34 = molecular target: T13, VPS34 (Homo sapiens, UniProt Q8NEB9); assay: KINOMEscan; type: binding; settings: 1 μM of compound 4; read-out: POC
T13 construct: purchased Eurofins DiscoverX

YSK1 = molecular target: T14, YSK1 (Homo sapiens, UniProt O00506); assay: KINOMEscan; type: binding; settings: 1 μM of compound 4; read-out: POC
T14 construct: purchased Eurofins DiscoverX

[1] = Metabolic stability in Human Liver Microsomes (HLM); type: in vitro ADME
Procedure: Metabolic stability in Human Liver Microsomes (HLM). Pooled liver microsomes from humans (male) were purchased from Sekisui XenoTech, LLC, Kansas City, KS, USA. Metabolic stability assays were performed in the presence of an NADPH-regenerating system consisting of 5 mM glucose-6-phosphate, 5 U/mL glucose-6-phosphate dehydrogenase, and 1 mM NADP^+. Liver microsomes (20 mg/mL), NADPH-regenerating system, and 4 mM MgCl2·6 H2O in 0.1 M TRIS-HCl-buffer (pH 7.4) were preincubated for 5 min at 37° C. and 750 rpm on a shaker. The reaction was started by adding the preheated compound at 10 mM resulting in a final concentration of 0.1 mM. The reaction was quenched at selected time points (0, 10, 20, 30, 60, and 120 min) by pipetting 100 μL of internal standard (ketoprofen) at a concentration of 150 μM in acetonitrile. The samples were vortexed for 30 s and centrifuged (21910 relative centrifugal force, 4° C., 20 min). The supernatant was used directly for LC-MS analysis. All compound incubations were conducted at least in triplicates. Additionally, a negative control containing BSA (20 mg/mL) instead of liver microsomes and a positive control using verapamil instead of compound were performed. A limit of 1% organic solvent during incubation was not exceeded. […]

T3 sequence (P16591 whole entry): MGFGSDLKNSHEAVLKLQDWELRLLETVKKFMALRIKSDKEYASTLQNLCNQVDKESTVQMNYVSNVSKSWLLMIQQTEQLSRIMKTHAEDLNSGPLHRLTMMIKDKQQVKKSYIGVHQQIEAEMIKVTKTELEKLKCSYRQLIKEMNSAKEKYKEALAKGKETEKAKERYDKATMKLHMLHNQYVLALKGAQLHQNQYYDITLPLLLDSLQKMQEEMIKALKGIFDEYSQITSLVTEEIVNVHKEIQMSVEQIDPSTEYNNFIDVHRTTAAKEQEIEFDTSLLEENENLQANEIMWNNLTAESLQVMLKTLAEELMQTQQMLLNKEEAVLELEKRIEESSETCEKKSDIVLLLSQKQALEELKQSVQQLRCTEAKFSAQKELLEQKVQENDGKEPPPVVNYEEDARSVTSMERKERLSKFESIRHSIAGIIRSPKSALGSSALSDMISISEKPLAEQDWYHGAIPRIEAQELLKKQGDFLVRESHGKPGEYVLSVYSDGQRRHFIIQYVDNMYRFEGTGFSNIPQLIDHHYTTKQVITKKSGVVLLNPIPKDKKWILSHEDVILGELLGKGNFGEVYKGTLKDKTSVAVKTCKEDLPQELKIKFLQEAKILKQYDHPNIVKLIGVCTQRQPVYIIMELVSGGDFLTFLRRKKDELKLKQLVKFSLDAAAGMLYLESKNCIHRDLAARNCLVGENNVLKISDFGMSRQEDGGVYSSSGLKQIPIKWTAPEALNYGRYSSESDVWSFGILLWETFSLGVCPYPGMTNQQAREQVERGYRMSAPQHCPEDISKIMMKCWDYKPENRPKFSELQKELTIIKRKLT
Chain of LIMK2 (P53671 whole entry): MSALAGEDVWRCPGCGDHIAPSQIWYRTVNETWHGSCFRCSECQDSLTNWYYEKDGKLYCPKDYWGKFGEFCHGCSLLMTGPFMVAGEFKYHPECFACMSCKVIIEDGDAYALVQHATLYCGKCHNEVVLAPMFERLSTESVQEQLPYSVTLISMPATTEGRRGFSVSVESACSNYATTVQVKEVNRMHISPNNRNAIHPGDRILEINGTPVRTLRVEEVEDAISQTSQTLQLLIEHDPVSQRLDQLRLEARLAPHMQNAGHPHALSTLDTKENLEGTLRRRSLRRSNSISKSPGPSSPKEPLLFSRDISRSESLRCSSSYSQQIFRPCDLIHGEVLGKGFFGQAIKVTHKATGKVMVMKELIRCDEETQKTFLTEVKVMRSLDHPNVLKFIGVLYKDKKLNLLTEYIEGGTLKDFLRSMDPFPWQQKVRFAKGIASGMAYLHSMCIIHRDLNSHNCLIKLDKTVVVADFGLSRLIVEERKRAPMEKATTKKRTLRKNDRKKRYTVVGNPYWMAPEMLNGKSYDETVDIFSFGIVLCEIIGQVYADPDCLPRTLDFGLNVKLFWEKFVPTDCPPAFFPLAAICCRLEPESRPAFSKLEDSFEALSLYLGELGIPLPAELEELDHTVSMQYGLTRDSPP
Chain of CHEK1 (O14757 whole entry): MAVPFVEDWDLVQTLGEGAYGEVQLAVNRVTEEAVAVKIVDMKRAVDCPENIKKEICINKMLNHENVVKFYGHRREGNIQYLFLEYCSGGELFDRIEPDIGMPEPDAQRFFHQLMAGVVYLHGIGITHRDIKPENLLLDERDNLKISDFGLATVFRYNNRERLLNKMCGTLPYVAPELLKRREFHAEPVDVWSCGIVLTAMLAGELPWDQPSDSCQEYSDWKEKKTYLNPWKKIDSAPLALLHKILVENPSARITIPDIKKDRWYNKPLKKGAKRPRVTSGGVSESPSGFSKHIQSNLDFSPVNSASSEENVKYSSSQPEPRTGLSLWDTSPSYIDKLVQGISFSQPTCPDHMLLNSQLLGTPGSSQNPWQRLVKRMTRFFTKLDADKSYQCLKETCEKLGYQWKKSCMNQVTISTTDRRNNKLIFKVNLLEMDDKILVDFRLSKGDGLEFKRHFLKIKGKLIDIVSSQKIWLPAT
T6 sequence (Q8TD19 whole entry): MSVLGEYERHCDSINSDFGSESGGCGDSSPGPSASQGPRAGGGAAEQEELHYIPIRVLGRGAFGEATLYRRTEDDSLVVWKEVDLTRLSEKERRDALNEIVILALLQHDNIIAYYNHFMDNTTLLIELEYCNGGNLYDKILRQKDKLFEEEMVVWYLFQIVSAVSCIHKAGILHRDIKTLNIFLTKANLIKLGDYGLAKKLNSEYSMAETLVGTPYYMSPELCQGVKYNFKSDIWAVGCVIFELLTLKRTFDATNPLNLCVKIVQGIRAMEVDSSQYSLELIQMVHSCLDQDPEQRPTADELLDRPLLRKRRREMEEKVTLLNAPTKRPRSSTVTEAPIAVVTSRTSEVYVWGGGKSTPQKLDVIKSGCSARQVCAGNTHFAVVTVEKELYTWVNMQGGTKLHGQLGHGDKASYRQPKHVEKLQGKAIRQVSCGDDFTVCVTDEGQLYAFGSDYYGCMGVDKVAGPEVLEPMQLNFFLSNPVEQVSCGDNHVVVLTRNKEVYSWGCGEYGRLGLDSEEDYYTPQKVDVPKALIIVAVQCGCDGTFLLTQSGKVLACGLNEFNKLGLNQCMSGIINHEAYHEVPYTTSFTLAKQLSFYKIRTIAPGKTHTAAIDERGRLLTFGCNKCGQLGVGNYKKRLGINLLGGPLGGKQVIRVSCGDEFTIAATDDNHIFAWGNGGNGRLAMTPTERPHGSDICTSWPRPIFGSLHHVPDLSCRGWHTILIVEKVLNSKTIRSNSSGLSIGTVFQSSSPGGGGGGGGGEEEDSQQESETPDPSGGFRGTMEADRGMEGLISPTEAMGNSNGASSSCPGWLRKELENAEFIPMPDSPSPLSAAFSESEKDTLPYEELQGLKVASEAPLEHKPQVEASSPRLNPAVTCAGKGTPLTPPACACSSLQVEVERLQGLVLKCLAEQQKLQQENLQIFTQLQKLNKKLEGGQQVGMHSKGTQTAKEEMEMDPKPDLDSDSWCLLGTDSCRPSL
Chain of KIT(V559D + V654A) (P10721 26-976 V559D/V654A): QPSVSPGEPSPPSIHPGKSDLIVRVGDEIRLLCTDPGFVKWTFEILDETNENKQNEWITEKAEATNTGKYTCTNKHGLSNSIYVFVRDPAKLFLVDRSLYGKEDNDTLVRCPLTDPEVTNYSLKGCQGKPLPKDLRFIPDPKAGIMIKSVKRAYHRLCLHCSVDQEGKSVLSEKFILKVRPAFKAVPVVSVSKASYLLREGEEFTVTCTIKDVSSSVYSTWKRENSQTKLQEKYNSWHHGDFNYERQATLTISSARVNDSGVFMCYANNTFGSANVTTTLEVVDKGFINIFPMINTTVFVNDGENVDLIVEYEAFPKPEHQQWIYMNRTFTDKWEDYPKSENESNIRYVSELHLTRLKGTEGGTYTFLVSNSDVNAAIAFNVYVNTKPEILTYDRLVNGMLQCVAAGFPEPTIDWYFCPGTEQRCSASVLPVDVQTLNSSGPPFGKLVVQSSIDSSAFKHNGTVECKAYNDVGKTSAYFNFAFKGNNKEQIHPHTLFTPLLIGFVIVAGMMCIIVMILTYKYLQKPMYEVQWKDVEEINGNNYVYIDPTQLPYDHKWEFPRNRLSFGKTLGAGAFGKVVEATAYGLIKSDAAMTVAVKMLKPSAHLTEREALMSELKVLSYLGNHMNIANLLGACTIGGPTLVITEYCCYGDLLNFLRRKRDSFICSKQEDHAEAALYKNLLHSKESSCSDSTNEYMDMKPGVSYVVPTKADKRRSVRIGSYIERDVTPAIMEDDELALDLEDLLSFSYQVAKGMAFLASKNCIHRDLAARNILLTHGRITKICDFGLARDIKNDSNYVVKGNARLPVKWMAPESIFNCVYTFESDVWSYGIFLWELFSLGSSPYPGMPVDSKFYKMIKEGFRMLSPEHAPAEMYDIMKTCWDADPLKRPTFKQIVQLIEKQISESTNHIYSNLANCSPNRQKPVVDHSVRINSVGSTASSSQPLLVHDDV
T9 sequence (O00141 whole entry): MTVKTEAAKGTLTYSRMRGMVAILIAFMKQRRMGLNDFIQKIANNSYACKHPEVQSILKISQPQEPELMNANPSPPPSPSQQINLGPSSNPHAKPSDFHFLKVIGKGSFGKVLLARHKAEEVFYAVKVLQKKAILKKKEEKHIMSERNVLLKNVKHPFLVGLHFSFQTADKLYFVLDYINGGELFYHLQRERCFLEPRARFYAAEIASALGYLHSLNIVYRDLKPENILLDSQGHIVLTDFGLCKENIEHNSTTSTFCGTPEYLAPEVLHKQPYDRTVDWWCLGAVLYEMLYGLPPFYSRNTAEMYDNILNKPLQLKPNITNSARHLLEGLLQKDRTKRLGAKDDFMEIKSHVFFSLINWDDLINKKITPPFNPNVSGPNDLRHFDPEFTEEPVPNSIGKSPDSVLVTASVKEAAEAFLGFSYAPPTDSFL
Chain of KIT(D816H) (P10721 26-976 D816H): as the sequence (P10721 26-976 V559D/V654A) above, with D534V, A629V, D791H counted along it
T10 sequence (P0C264 whole entry): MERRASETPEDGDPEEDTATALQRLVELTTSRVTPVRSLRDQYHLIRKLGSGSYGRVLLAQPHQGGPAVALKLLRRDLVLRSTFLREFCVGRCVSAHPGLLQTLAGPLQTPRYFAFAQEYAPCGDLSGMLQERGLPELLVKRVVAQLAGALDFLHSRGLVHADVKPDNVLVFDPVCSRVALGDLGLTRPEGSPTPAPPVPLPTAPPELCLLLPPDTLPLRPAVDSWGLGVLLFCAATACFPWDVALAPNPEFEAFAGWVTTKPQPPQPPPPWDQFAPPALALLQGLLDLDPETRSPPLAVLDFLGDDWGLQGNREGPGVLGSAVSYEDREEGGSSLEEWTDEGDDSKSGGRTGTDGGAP

C=CC(=O)Nc1ccc(OC)c(Nc2cc(-c3[nH]c(CC)nc3-c3cccc(NC(=O)c4cccc5c4NC(=O)c4ccccc4N5)c3)ccn2)c1 [Compound 4, N-(3-(5-(2-((5-Acrylamido-2-methoxyphenyl)amino)pyridin-4-yl)-2-ethyl-1H-imidazol-4-yl)phenyl)-11-oxo-10,11-dihydro-5H-dibenzo[b,e][1,4]diazepine-9-carboxamide] showed a remaining binding at 1 µM (ADCK3) of 100%, a remaining binding at 1 µM (CHEK1) of 100% and a remaining binding at 1 µM (CSF1R) of 100%. The remaining binding at 1 µM (CSF1R-autoinhibited) was 69%, the remaining binding at 1 µM (EGFR(G719C)) was 6.5% and the remaining binding at 1 µM (ERK2) was 100%. It also gave a remaining binding at 1 µM (FER) of 36%, a remaining binding at 1 µM (FLT3(D835Y)) of 96% and a remaining binding at 1 µM (GAK) of 16%. The remaining binding at 1 µM (HUNK) was 32%, the remaining binding at 1 µM (KIT(D816H)) was 39% and the remaining binding at 1 µM (KIT(V559D + V654A)) was 93%. It also gave a remaining binding at 1 µM (KIT-autoinhibited) of 100%, a remaining binding at 1 µM (LIMK2) of 93% and a remaining binding at 1 µM (MAP3K3) of 51%. For the same compound, the remaining binding at 1 µM (NEK9) was 83%, the remaining binding at 1 µM (RAF1) was 73% and the remaining binding at 1 µM (RIOK3) was 100%. The remaining binding at 1 µM (SGK) was 86%, the remaining binding at 1 µM (SgK110) was 100% and the remaining binding at 1 µM (TGFBR1) was 75%. The remaining binding at 1 µM (TXK) was 42%, the remaining binding at 1 µM (VPS34) was 84% and the remaining binding at 1 µM (YSK1) was 76%. For the same compound, the “Metabolic stability in liver microsomes” value [1] was “metabolically stable”.
